According to patent US20190382358A1, “HETEROCYCLIC COMPOUNDS AS PESTICIDES” (Bayer CropScience Aktiengesellschaft, priority 2016, published 2019):

What was measured:
Type in all cases: in vivo
[1] = system: Tetranychus urticae; assay: Tetranychus urticae spray test OP-resistant; conditions: foliar, 144 h, after 6 days, French bean leaf disks
Description: Tetranychus urticae—Spray Test OP-Resistant
(§1) To produce a suitable preparation of active compound, 1 part by weight of active compound is mixed with the stated amount of solvents and is diluted with water, containing an emulsifier concentration of 1000 ppm, to the desired concentration. Further test concentrations are prepared by dilution with emulsifier containing water.
French bean (Phaseolus vulgaris) leaf disks infected with all instars of the two spotted spidermite (Tetranychus urticae), are sprayed with a preparation of the active ingredient of the desired concentration.
After 6 days mortality in % is determined. 100% means all spider mites have been killed and 0% means none of the spider mites have been killed.

[2] = system: Phaedon cochleariae; assay: Phaedon cochleariae spray test; conditions: for mortality at 500 g/ha: Phaedon cochleariae, in Brassica rapa, foliar, 168 h, read-out: mortality in %
Description: Phaedon cochleariae—Spray Test
as §1
Chinese cabbage (Brassica pekinensis) leaf disks are sprayed with a preparation of the active ingredient of the desired concentration. Once dry, the leaf disks are infested with mustard beetle larvae (Phaedon cochleariae).
After 7 days mortality in % is determined. 100% means all beetle larvae have been killed and 0% means none of the beetle larvae have been killed.

[3] = system: Spodoptera frugiperda; assay: Spodoptera frugiperda spray test; conditions: 168 h, after 7 days, maize leaf sections, larvae
Description: Spodoptera frugiperda—Spray Test
as §1
Maize (Zea mays) leaf sections are sprayed with a preparation of the active ingredient of the desired concentration. Once dry, the leaf sections are infested with fall armyworm larvae (Spodoptera frugiperda).
After 7 days mortality in % is determined. 100% means all caterpillars have been killed and 0% means none of the caterpillars have been killed.

[4] = system: Nezara viridula; assay: Nezara viridula spray test (cotton plants, feeding control); conditions: 100 ppm, after 3 days, larvae
Description: (§2) Nezara viridula—Spray Test
(§3) To produce a suitable preparation of active compound, 1 part by weight of active compound is mixed with the stated amount of solvent and is diluted with water to the desired concentration. Further test concentrations are prepared by dilution with water Ammonium salt and/or penetration enhancer (rapeseed oil methyl esters) in a dosage of 1000 ppm are added to the desired concentration if necessary.
Cotton plants (Gossypium hirsutum) are treated by being sprayed with the preparation of the active compound of the desired concentration and are infested with 10 larvae per plant of the green plant bug (Nezara viridula).
(§4) After 3 days feeding control in % is determined. 100% means there is no feeding damage visible and 0% means the plant damage corresponds to that of the untreated control plants.

[5] = system: Diabrotica balteata; assay: Diabrotica balteata spray test; conditions: 160 μg/well; after 7 days; wheat seeds, larvae of banded cucumber beetle
Description: Diabrotica balteata-Spray Test
as §1, with “solvent,” for “solvents”, “and the concentrate” for “and”
Soaked wheat seeds (Triticum aestivum) are placed in a multiple well plate filled with agar and some water and are incubated for 1 day to germinate (5 seeds per well). The germinated wheat seeds are sprayed with a test solution containing the desired concentration of the active ingredient. Afterwards each unit is infected with 10-20 larvae of the banded cucumber beetle (Diabrotica balteata).
After 7 days efficacy in % is determined. 100% means all the seedlings have grown up like in the untreated, uninfected control; 0% means none of the seedlings have grown.

[6] = system: Nezara viridula; assay: Nezara viridula spray test (barley plants, mortality); conditions: for mortality at 20 g/ha / mortality at 100 g/ha / mortality at 500 g/ha: Nezara viridula, 96 h, read-out: mortality in %
Description: as §2
To produce a suitable preparation of active compound, 1 part by weight of active compound is mixed with the stated amount of solvent, and the concentrate is diluted with water, containing an emulsifier concentration of 1000 ppm, to the desired concentration Ammonium salt and/or penetration enhancer in a dosage of 1000 ppm are added to the desired concentration if necessary.
Barley plants (Hordeum vulgare) infested with larvae of the southern green stink bug (Nezara viridula) are sprayed with a test solution containing the desired concentration of the active ingredient.
After 4 days, mortality in % is determined. 100% means all the stink bugs have been killed; 0% means none of the stink bugs have been killed.

[7] = system: Meloidogyne incognita; assay: Meloidogyne incognita test; conditions: 20 ppm; after 14 days; salad seedlings, eggs and larvae
Description: Meloidogyne incognita—Test
To produce a suitable preparation of active compound, 1 part by weight of active compound is mixed with the stated amount of solvent, and the concentrate is diluted with water to the desired concentration.
Vessels are filled with sand, a solution of the active ingredient, a suspension containing eggs and larvae of the southern root-knot nematode (Meloidogyne incognita) and salad seeds. The salad seeds germinate and the seedlings grow. Galls develop in the roots.
After 14 days the nematicidal activity is determined on the basis of the percentage of gall formation. 100% means no galls were found and 0% means the number of galls found on the roots of the treated plants was equal to that in untreated control plants.

[8] = system: Euschistus heros; assay: Euschistus heros spray test (feeding control); conditions: 100 ppm; after 3 days; kidney bean plants, larvae
Description: Euschistus heros—Spray Test
as §3
Kidney bean plants (Phaseolus vulgaris) are treated by being sprayed with the preparation of the active compound of the desired concentration and are infested with 10 larvae per plant of the brown stink bug (Euschistus heros).
as §4

[9] = system: Nilaparvata lugens; assay: Nilaparvata lugens spray test; conditions: 96 h, after 4 days, rice plants, larvae
Description: Nilaparvata lugens—Spray Test
To produce a suitable preparation of active compound, 1 part by weight of active compound is mixed with the stated amount of solvents and is diluted with water, containing an emulsifier concentration of 1000 ppm, to the desired concentration. Further test concentrations are prepared by dilution with emulsifier containing water. Ammonium salt and/or penetration enhancer in a dosage of 1000 ppm are added to the desired concentration if necessary.
Rice plants (Oryza sativa) are treated by being sprayed with the desired concentration of the active compound and are infested with larvae of the brown planthopper (Nilaparvata lugens).
After 4 days mortality in % is determined. 100% means all planthoppers have been killed and 0% means none of the planthoppers have been killed.

Compound	mortality at 500 g/ha [2]	efficacy in % [5]	mortality at 100 g/ha [6]	mortality at 500 g/ha [6]	nematicidal activity (% reduction of galls vs untreated control) [7]	further results
O=C(Nc1nc(-c2c(F)cc(C(F)(F)F)cc2F)ns1)c1cccnc1C(F)(F)F [Compound I-1-1]	100%					mortality at 500 g/ha [1]: 90%
O=C(Nc1nc(-c2c(F)ccc(Br)c2F)ns1)c1cccnc1C(F)(F)F [Compound I-1-51, N-[3-(3-bromo-2,6-difluorophenyl)-1,2,4-thiadiazol-5-yl]-2-(trifluoromethyl)nicotinamide]	100%	100%	100%	100%		mortality at 500 g/ha [3]: ≥ 83%; mortality at 500 g/ha [1]: 90%; feeding control in % [4]: 100%; mortality at 20 g/ha [6]: 100%
O=C(Nc1nc(-c2c(F)ccc(Cl)c2F)ns1)c1cccnc1C(F)(F)F [Compound I-1-6, N-[3-(3-chloro-2,6-difluorophenyl)-1,2,4-thiadiazol-5-yl]-2-(trifluoromethyl)nicotinamide]	100%		100%	100%		mortality at 500 g/ha [3]: ≥ 83%; mortality at 500 g/ha [1]: 90%; mortality at 20 g/ha [6]: 100%
O=C(Nc1nc(-c2c(F)ccc(F)c2F)ns1)c1cccnc1C(F)F [Compound I-1-27]						feeding control in % [4]: 100%
O=C(Nc1nc(-c2c(F)c(F)cc(F)c2F)ns1)c1nccnc1C(F)(F)F [Compound I-1-35]					90%	
O=C(Nc1nc(-c2cc(Cl)cc(F)c2F)ns1)c1c(F)cccc1F [Compound I-1-46]						mortality in % ([2]; 500 g/ha, after 7 days, Chinese cabbage leaf disks, larvae): 83%
O=C(Nc1nc(-c2c(F)c(F)cc(F)c2F)ns1)c1ccccc1C(F)(F)F [Compound I-1-34]		100%				
O=C(Nc1nc(-c2c(F)ccc(C(F)(F)F)c2F)ns1)c1cccnc1C(F)(F)F [Compound I-1-2, N-{3-[2,6-difluoro-3-(trifluoromethyl)phenyl]-1,2,4-thiadiazol-5-yl}-2-(trifluoromethyl)nicotinamide]	100%		100%	100%	90%	mortality at 500 g/ha [3]: ≥ 83%; mortality at 500 g/ha [1]: 90%; feeding control in % [8]: 85%; mortality at 500 g/ha [9]: ≥ 90%; mortality at 20 g/ha [6]: 100%
O=C(Nc1nc(-c2c(F)c(F)cc(F)c2F)ns1)c1cccnc1C(F)(F)F [Compound I-1-33]		100%			90%	feeding control in % [4]: 100%; feeding control in % [8]: 100%
O=C(Nc1nc(-c2c(F)ccc(F)c2F)ns1)c1cccnc1C(F)(F)F [Compound I-1-24]		100%			90%	
O=C(Nc1nc(-c2c(F)ccc(C(F)(F)F)c2F)ns1)c1ccccc1C(F)(F)F [Compound I-1-3, N-{3-[2,6-difluoro-3-(trifluoromethyl)phenyl]-1,2,4-thiadiazol-5-yl}-2-(trifluoromethyl)benzamide]	100%		100%	100%		
Cc1ccc(F)c(-c2nsc(NC(=O)c3cccnc3C(F)(F)F)n2)c1F [Compound I-1-52, N-[3-(2,6-difluoro-3-methylphenyl)-1,2,4-thiadiazol-5-yl]-2-(trifluoromethyl)nicotinamide]	100%		100%	100%		
O=C(Nc1nc(-c2c(F)ccc(F)c2F)ns1)c1ccccc1Cl [Compound I-1-30]		100%			90%	
O=C(Nc1nc(-c2cc(F)cc(F)c2F)ns1)c1ccccc1Cl [Compound I-1-21]						mortality in % ([6]; 500 g/ha, after 4 days, barley plants, larvae): 80%
